Assays:
[1] = tested on: SC tissue; assay: SC toxicity at the injection site (Example 10)
Protocol: The same studies were carried out with a polymer according to the invention coupled with Cyanine 5.5.

[2] = Pharmacokinetics and biodistribution of radiolabelled PTX; conditions: mice, liver, kidneys, spleen, lungs; radiolabel
Protocol: 7 week old female BALB/c OlaHsd mice (˜22 g; Envigo, France) were used. […] Each group consisted of 40 mice divided into 10 different times (0.25 h, 0.5 h, 1 h, 2 h, 4 h, 7 h, 24 h, 48 h, 96 h and 144 h) leading to 4 mice per group. […] Livers, kidneys, spleens, lungs and some SC tissue at the injection site were also collected. All the samples were stored in a freezer (−20° C.) for a maximum of one week before analysis. For the radioactivity count, approximately 100 μl of plasma and 100 mg of each organ/tissue were removed and weighed with precision. The organs were first dissolved by adding 1 ml of soluble solution (PerkinElmer, USA) and the samples were placed overnight in an oven at 60° C. They were then whitewashed by twice adding 100 μL of 30% H2O2 (weight/volume) and heated for 30 min at 60° C. in an oven. Finally, the treated plasma and organ samples were mixed with Hionic-FluorUltimagold (PerkinElmer, USA) and the radioactivity was measured with a versatile LS 6500 scintillation counter (Beckman Coulter).
Pharmacokinetic and biodistribution studies were also conducted for the polyacrylamide compound containing paclitaxel. Paclitaxel was radiolabelled and coupled to the polymer by an ester link (stable link) so that it could be followed in the blood and in various organs (liver, lungs, kidneys, spleen, SC tissue). […]

Row | Compound | Toxicity at the injection site ([1]; SC administration at 30 mg/kg (paclitaxel equivalent) once a day for 4 days, FIG. 12) | Elimination (biodistribution) [2] | SC toxicity (necrosis of SC tissue) ([1]; in vivo, sc, 0.8 mg/kg)
1 | CC(=O)O[C@H]1C(=O)[C@@]2(C)[C@H]([C@H](OC(=O)c3ccccc3)[C@]3(O)C[C@H](OC(=O)[C@H](O)[C@@H](NC(=O)c4ccccc4)c4ccccc4)C(C)=C1C3(C)C)[C@]1(OC(C)=O)CO[C@@H]1C[C@@H]2O [paclitaxel] | local toxicity effects | predominantly hepatic elimination | –
2 | Cyanine 5.5 | – | – | very necrotizing for SC tissue

Source: patent US12150996B2, “Polymeric prodrugs and subcutaneous and/or intramuscular administration thereof” (priority 2017, dated 2024)
